Experiments:
human GLP-1 receptor = target: T1, human GLP-1 receptor (Homo sapiens, UniProt P43220); test: GLP-1 receptor binding, displacement of 125I-GLP-1, low and high HSA; details: 2% HSA versus 0.005% HSA
T1 construct: host or cells: cell membrane preparation
Protocol: For a receptor binding test in the presence of low-concentration HSA (0.005% (w/v)), 50 μL of assay buffer was added to each well of the assay plate. For a receptor binding test in the presence of high-concentration HSA (2% (w/v)), 50 μL of 8% (w/v) albumin stock solution was added to each well of the assay plate. […] In the presence of 0.005% HSA, all test compounds and the reference control were diluted to 2 μM with assay buffer, and then all samples were diluted in 4-fold serial gradient dilutions for a total of 10 concentration gradients. […] 25 μL of test compounds or reference control at different concentrations were added to the appropriate wells of the assay plate, respectively. Cell membrane protein aliquots were thawed and diluted to their working concentration (40 μg/mL), and 50 μL of the cell membrane-containing solution was added to each well of the assay plate. […] The assay plate was incubated at room temperature for 1 h. After the incubation, the reaction solution was collected on a GF/C filter plate using a cell collector, washed 6 times with a washing buffer, and dried in a drying oven at 50° C. for 1 h. 50 μL of scintillation solution was added and blocked, and the values were read using Microbeta2. IC50 values were calculated by the nonlinear regression analysis in the GraphPad Prism software and reported in nM. […]

db/db mice [1] = test: Single-dose pharmacodynamic study on db/db mice (Example 5); assay type: in vivo; details: single s.c. 100 μg/kg
Protocol: The title compounds of Examples 1-4 and Comparative Examples 1-4 (also known as GLP-1 derivatives) were tested in a single dose study on an obese mouse model (db/db mice) with type 2 diabetes (T2DM). The hypoglycemic drug effect of the GLP-1 derivatives was tested at a dose of 100 μg/kg.
(§1) Male db/db (BKS/Lepr) mice aged 8-9 weeks were housed in appropriately sized feeding cages in a barrier environment and had free access to standard food and purified water, with environmental conditions controlled at 40%-60% relative humidity (RH) and 22-24° C. After an adaptation period of 1-2 weeks, the mice were used in the experiment.
Before the start of the experiment on the day, the mice were evaluated for baseline blood glucose at about 9:30 a.m. and weighed. […]
The GLP-1 derivatives were dissolved in the vehicle to an administration concentration of 20 μg/mL, and the administration volume was 5 mL/kg (i.e., 50 μL/10 g body weight). […] The tail of each mouse was cleaned with an alcohol cotton ball, and blood drops were collected from the tail using a disposable blood collection needle and measured with a glucometer and accompanying testing strips (Roche). Food intake and body weight of each mouse were measured at 24 h, 48 h and 72 h after the administration. […]

db/db mice [2] = test: Single-dose study of blood glucose, food and water intake on db/db mice (Example 15); assay type: in vivo; details: single s.c. 100 μg/kg
Protocol: as §1, with “RH” for “relative humidity (RH)”
Before the start of the experiment on the day, the mice were evaluated for baseline blood glucose at about 9:00 a.m. and weighed.
The GLP-1 derivatives were dissolved in the vehicle to an administration concentration of 20 μg/mL, and the administration was performed once by subcutaneous injection (s.c., 50 μL/10 g body weight) at back of the neck. The compound of Example 2 was administered at about 10:00 a.m. (time 0), and the blood glucose of the mice was evaluated 1 h, 2 h, 3 h, 6 h, 12 h, 24 h, 48 h and 72 h after the administration. The tail of each mouse was cleaned with an alcohol cotton ball, and blood drops were collected from the tail using a disposable blood collection needle and measured with a glucometer (Roche) and accompanying testing strips. Meanwhile, the food intake and water intake of the mice were monitored every day.
The dose-response curve of blood glucose versus time, the dose-response curve of food intake versus time, and the dose-response curve of water intake versus time were plotted for each single dose of GLP-1 derivative. […]

Kkay mice = test: Long-term pharmacodynamic study on Kkay mice (Example 17); assay type: in vivo; details: s.c. 100 and 300 μg/kg; dulaglutide 600 μg/kg; FIGS. 9a-9b
Protocol: Before the start of the experiment on the day, the mice were evaluated for baseline blood glucose at about 9:00 a.m. and weighed. […] The vehicle contained 14 mg/mL propylene glycol, 5.5 mg/mL phenol and 1.133 mg/mL disodium hydrogen phosphate, with a pH value of 7.4.
(time 0) at back of the neck once every 2 days for 16 consecutive times, the blood glucose of the mice was evaluated 3 h, 6 h, 1 day and 2 days after the first administration, and HbA1c was detected in an EDTA anticoagulation tube 48 h after the last administration.

T1 sequence (P43220 24-463): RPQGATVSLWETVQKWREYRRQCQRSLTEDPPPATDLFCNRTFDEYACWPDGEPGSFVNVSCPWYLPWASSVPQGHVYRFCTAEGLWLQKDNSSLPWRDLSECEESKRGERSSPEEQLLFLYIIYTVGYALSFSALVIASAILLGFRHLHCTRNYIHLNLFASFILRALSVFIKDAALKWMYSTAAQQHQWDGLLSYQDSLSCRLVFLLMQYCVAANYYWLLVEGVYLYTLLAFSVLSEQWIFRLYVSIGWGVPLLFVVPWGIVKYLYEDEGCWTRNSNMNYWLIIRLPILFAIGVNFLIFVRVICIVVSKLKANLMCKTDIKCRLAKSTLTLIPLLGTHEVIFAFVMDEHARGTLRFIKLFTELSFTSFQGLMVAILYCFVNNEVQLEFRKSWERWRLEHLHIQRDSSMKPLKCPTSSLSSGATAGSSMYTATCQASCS

Substance | Ratio [(IC50/nM) high-concentration HSA]/[(IC50/nM) low-concentration HSA] (human GLP-1 receptor) | effective duration of action of hypoglycemic effect on db/db mice compared to semaglutide (db/db mice [1]) | hypoglycemic effect on db/db mice compared to semaglutide (db/db mice [1]; FIGS. 2a-2b) | control of food intake and water intake compared to semaglutide (db/db mice [2]; db/db mice, FIGS. 7c-7d) | hypoglycemic effect on db/db mice compared to semaglutide (db/db mice [2]; same dose, FIGS. 7a-7b) | hypoglycemic effect on Kkay mice compared to dulaglutide (Kkay mice)
semaglutide | 813 | – | – | – | – | –
N-ε^26-[2-(2-[2-(4-[19-carboxynonadecanoylamino]-4(S)-carboxybutanoylamino)ethoxy]ethoxy)acetyl][Gly8, Arg34]GLP-1-(7-37) Peptide [Compound 2] | – | longer than that of semaglutide | superior hypoglycemic effect to semaglutide | its effect is superior to semaglutide | superior hypoglycemic effect | significantly superior hypoglycemic effect on Kkay mice to dulaglutide

Source: patent US12703731B2, “Long-acting GLP-1 compound” (Gan & Lee Pharmaceuticals Co., Ltd., priority 2019, dated 2026)
